The values that follow come from patent US20260273074A1, “FERRITIN-TARGETING PROTACS AND METHODS OF INDUCING PYROPTOSIS” (Wisconsin Alumni Research Foundation, priority 2023, published 2026).

Like-named read-outs stand apart in the source and are kept apart here.

For series [1], the target named is T1, apoferritin from equine spleen (Equus caballus, UniProt P02791).
T1 construct: the apoferritin from equine spleen (A3660, Sigma-Aldrich) that is not combined with iron was used; purchased Sigma-Aldrich A3660; host or cells: equine spleen (tissue-derived)
T1 sequence (P02791 2-175 limits assumed): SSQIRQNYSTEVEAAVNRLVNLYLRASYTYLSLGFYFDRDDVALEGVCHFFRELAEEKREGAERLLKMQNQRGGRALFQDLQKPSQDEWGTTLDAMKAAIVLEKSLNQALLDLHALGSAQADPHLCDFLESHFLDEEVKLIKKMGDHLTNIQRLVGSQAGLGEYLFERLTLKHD
The experiment in a line: Isothermal titration calorimetry (ITC) binding to ferritin. How it is done: As for the ferritin proteins, the apoferritin from equine spleen (A3660, Sigma-Aldrich) that is not combined with iron was used. Before the ITC test, 1 mL of apoferritin in glycerol solution (50% glycerol and 0.075 M NaCl) was placed in a dialysis bag with a molecular weight cut-off of 3 kDa. The dialysis bags were then immersed in the prepared solution (20 mM Tris-HCl, pH 8.5, and 130 mM NaCl) and stirred at room temperature. The dialysis buffer was changed every 24 h for three times, and the last buffer was collected and 0.05% DMSO was added to serve as the ITC buffer. As for the oleic acid, 12 μM apoferritin in the ITC buffer was placed in the ITC cell, and the syringe was full of 250 μM oleic acid in the same ITC buffer. Besides the first injection with 5 μL of the oleic acid solution, 18 aliquots with 10 μL of the oleic acid solution were titrated into the apoferritin solution with a time interval of 300 s. […] Besides the first injection with 1 μL of the apoferritin solution, 25 aliquots were titrated with a time interval of 300 s. Raw data were corrected for control titrations (the solution in the syringe into the blank ITC buffer in the cell) and integrated using Origin 7.0 (MicroCal). Binding kinetics parameters, including N, Kd, ΔH, and ΔS, were calculated using a single-class binding site model.
(In general: Isothermal titration calorimetry measures the heat released or taken up as one component is titrated into another.)

Another series deals with T2, ferritin and VHL (Mus musculus, UniProt P09528+P29391+P40338).
T2 construct: endogenous in cells; host or cells: B16F10 (murine melanoma)
Put plainly: Co-immunoprecipitation of ferritin with anti-VHL antibody (ternary complex formation). The class given is cell-based, murine. As to conditions: B16F10 cells, 5 μM, 2 h. How it is done: Co-Immunoprecipitation assay: B16F10 cells were seeded in T75 cell culture flasks (2×10^6 cells per well) and cultured for 24 h. […] After incubation for 2 h, cells were washed with cold PBS and lysed on ice with IP lysis buffer (50 mM Tris-HCl, pH 7.4; 150 mM NaCl; 2 mM EDTA; 1% NP-40) containing phenylmethylsulfonyl fluoride (PMSF, 1 mM) and the phosphatase inhibitor cocktail for 30 min. The lysates were collected and centrifuged at 10,000 g for 10 minutes at 4° C. On the one hand, 10 μL of lysate supernatants were saved as the input samples. On the other hand, 25 μL of magnetic beads was added to each supernatant in microcentrifuge tubes, and the resulting mixtures were incubated at 4° C. with gentle rotation for 30 min. Next, the sample-containing tube was placed on a magnetic rack for 1 minute, and the supernatant was transferred into a new microcentrifuge tube placed on ice, serving as the precleared samples. The total proteins in the precleared samples were quantified through the BCA assay. Each precleared lysate was added an appropriate amount of mouse monoclonal IgG1 κ anti-VHL antibody (sc-135657, Santa Cruz Biotechnology) and then incubated at 4° C. for 2 hours with gentle rotation. After that, the pre-washed magnetic bead (equal to 25 μL of magnetic beads) was added to each sample. The resulting mixtures were incubated at room temperature for 1 h with gentle rotation. […]

For the next series, the system named is cleaved caspase 3. Put plainly: Western blot of cleaved caspase 3 in B16F10 cells. The class given is cell-based, murine. Conditions: 8 h. How it is done:
As for the determination of cleaved-GSDME and cleaved-caspase-3, B16F10 cells were seeded in 6-well culture plates (2×10^5 cells per well) and cultured for 24 h. Then the medium in the corresponding wells except the negative control was replaced with 1 mL of medium containing ferritin degraders, albumin nanoparticles, or the degrader with inhibitors at the indicated concentrations. Incubation for another 6 or 8 h was used to test the cleaved-caspase-3, while treatment for another 16 or 20 h was used to test cleaved-GSDME. The following procedures were the same as mentioned above.
In general terms: Immunoblotting shows a protein as a band on a membrane.

Series [2] in a line: Solubility in the ITC buffer. The class given is physicochemical. Conditions: 20 mM Tris-HCl pH 8.5, 130 mM NaCl, 0.05% DMSO.
In a further series the test system is B16F10 cells. Put plainly: Cell viability evaluation by CCK-8 assay. Conditions: for IC50: Mus musculus, read-out: IC50 of cell viability. How it is done: Cell viability evaluation: The cell viability of B16F10 cells treated with ferritin degraders with or without various inhibitors was evaluated by CCK-8 assay. Briefly, 5×10^3 cells were seeded in 96-well plates and cultured for 24 h for attachment. Then the medium in the corresponding wells, except the control, was replaced with 100 μL of medium containing the indicated degrader formulations with concentrations of 0.008, 0.04, 0.2, 1, and 5 μM. After incubation for 24 or 48 h, CCK-8 reagent was added and interacted with cells at 37° C. for 1 h. The absorbance was measured by a microplate reader (Infinite M Plex) at the detection wavelength of 450 nm.
For blocking assays with Z-VAD, NSCI, and VX-765, 5×10^3 cells were seeded in 96-well plates and cultured 24 h for attachment. Then the medium in the corresponding wells, except the control, was replaced with 100 μL of medium containing Z-VAD (10 μM), NSCI (0.1 μM), or VX-765 (10 μM). […] Following another 24-h incubation, CCK-8 reagents were added and interacted with cells at 37° C. for 1 h. The absorbance was measured by a microplate reader (Infinite® M Plex) at the detection wavelength of 450 nm. For blocking assays with DFOM, 5×10^3 cells were seeded in 96-well plates and cultured 24 h for attachment. […] Following another 20-h incubation, CCK-8 reagents were added and interacted with cells at 37° C. for 1 h. The absorbance was measured by a microplate reader (Infinite® M Plex) at the detection wavelength of 450 nm.

T2 sequence (P09528 2-182 limits assumed): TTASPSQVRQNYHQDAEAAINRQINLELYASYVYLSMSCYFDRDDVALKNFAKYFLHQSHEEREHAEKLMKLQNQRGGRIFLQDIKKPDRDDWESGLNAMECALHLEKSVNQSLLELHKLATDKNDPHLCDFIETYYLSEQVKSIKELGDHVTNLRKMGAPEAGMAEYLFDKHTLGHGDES
T2 sequence (P29391 2-183 limits assumed): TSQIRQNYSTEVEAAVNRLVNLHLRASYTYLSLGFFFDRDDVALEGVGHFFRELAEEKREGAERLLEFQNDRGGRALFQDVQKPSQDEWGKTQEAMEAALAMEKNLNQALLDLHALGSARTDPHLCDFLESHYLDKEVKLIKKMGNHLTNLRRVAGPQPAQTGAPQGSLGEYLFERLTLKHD
T2 sequence (P40338 whole entry): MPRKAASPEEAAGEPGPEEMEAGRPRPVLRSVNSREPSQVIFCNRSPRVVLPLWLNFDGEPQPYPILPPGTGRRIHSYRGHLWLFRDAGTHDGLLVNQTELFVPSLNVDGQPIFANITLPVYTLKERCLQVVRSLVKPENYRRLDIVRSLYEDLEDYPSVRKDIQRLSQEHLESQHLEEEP
T2 sequence (P62869 whole entry partner): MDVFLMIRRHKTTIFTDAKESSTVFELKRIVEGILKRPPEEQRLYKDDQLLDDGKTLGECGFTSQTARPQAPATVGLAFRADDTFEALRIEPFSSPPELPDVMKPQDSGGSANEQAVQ
T2 sequence (P83940 whole entry partner): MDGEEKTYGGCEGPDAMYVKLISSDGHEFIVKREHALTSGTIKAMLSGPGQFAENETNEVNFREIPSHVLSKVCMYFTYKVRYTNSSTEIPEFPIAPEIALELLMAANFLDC

Broadly, the Kd is the equilibrium constant for the complex coming apart. Low readings indicate tighter binding, high ones weaker binding. By IC50 is commonly meant the point on the concentration scale where inhibition reaches its midpoint. On to `CCCCCCCCC=CCCCCCCCC(=O)NCCCC(=O)NC(C(=O)N1CC(O)CC1C(=O)NCc1ccc(-c2scnc2C)cc1)C(C)(C)C` (stereo not shown) [DeFer-2], for which, in series [1], binding was put at a Kd of 17.1 ± 1.96 µM. Also, at ferritin and VHL, the “ferritin co-precipitated with VHL” value is on record as “could induce ferritin co-precipitated with VHL”. In the series with cleaved caspase 3, the “level of cleaved caspase 3” value is recorded as “increased the level of cleaved caspase 3 in a dose-dependent manner”. In series [2], the “solubility in the ITC buffer” value was “relatively low solubility”. The “cytotoxicity against B16F10 cells” value with B16F10 cells was “severe cytotoxicity”. The IC50 was determined as 3.1 µM in the series on B16F10 cells (B16-F10, 24 h) and 1.5 µM in the series with B16F10 cells (B16-F10, 48 h).
